What was measured:
P2Y12 receptor = biological target: T1, P2Y12 receptor (Homo sapiens, UniProt Q9H244); assay: VerifyNow P2Y12 assay (PRU); assay type: cell-based; settings: no treatment 314
T1 construct: It is a whole-blood assay based on light transmission measurements; endogenous in cells; host or cells: platelets in citrated whole blood of healthy volunteers
Description: (§1) It is a whole-blood assay based on light transmission measurements. The assay is a turbidimetric-based optical detection system that, like optical aggregometry, depends on the ability of activated platelets to bind fibrinogen. When platelets are activated, they form aggregates with fibrinogen-coated beads and the light transmission through the samples increases. Arachidonic acid, ADP and thrombin receptor activating peptide are the corresponding agonists used in VerifyNow system to specifically differentiate the platelet activation pathways. In the aspirin-specific assay, the degree of aggregation attenuated by aspirin, which blocks the arachidonic acid pathway, is quantified according to a corresponding decrease in light transmission and is reported as aspirin reaction units (ARU). ARU value less than 550 indicates adequate platelet inhibition by aspirin treatment. The residual activity of platelet after inhibition on P2Y12 receptor is represented as the P2Y12 reaction units (PRU). The normal PRU distribution range without anti-platelet therapy is 194-418. P2Y12 antagonist like clopidogrel and ticagrelor may be used as the positive control. […] The reference range was 125-330. Aggrastat may be used as the positive control medication for PAU value.
(§2) The VerifyNow P2Y12 system measures the rate and extent of changes in light transmittance caused by platelets aggregating in whole blood samples.

[1] = biological target: T2, platelet glycoprotein (GP) IIb/IIIa receptors (Homo sapiens, UniProt P05106+P08514); assay: VerifyNow GPIIb/IIIa assay (PAU); assay type: cell-based; settings: no treatment 161
T2 construct: It is a whole-blood assay based on light transmission measurements; endogenous in cells; host or cells: platelets in citrated whole blood of healthy volunteers
Description: as §1, §2

arachidonic acid pathway = assay: VerifyNow aspirin assay (ARU); assay type: cell-based, human; settings: no treatment 660
Description: as §1, §2

HUVECs = assay: MTT cell viability, HUVECs; assay type: cell-based, human; settings: 48 hrs, read-out: IC50 (cytotoxicity, MTT)
Protocol: HUVECs were purchased from American Type Culture Collection (ATCC) and were cultivated in endothelal cell nutrient medium consisting of 20% heat-inactivated fetal bovine serum (FBS), 80% Medium 199 (M199) buffered with 25 mM HEPES and supplemented with 2 mM L-Glutamine and 100 U/ml K-Penicillin and 100 μg/mL streptomycin, and kept at 37° C. in a 5% CO2 atmosphere.
Cell viability was measured with blue formazan that was metabolized from 3-(4,5-dimethylthiazol-2-yl)-2, 5-diphenyl tetrazolium bromide (MTT, Amresco USA) in mitochondria, which is active only in live cells. HUVEC and late EPCs were seeded in a 96-well plate at a density of 1×10^5 cells per well, cultured overnight and pretreated with various concentrations of physalin B. After incubation for 6 hr, 24 hr and 48 hr, the MTT (5 mg/ml) colorimetric viability test was used to determine the viability of cells. The absorbance of each well was measured at 540 nm with an ELISA reader and the percentage viability was calculated.
The in vitro cytotoxic effect of physalin B on HUVEC and EPCs were respectively determined by MTT assay, in which cells were exposed to various concentrations of physalin B (i.e., 0, 20, 40, 80 and 160 μM). Results are illustrated in FIGS. 5A and 5B.

platelets [2] = assay: PFA-100 platelet function, collagen/ADP (CADP) cartridge closure time; assay type: cell-based, human; settings: 10 μM, collagen/ADP stimulus, citrated whole blood
Protocol: (§3) Ten healthy, non-smoking volunteers (6 women, 4 men), ages 23-39 years old, participated in this study. The citrated whole blood samples were incubated at room temperature for 60 min. with physalin B (dissolved in 0.5% DMSO) or the vehicle alone. Platelet function measurement was performed with a PFA-100 analyzer system (Dade-Behring, Marburg, Germany). The PFA-100TM device measures the closure time (CT) required for platelets to plug an aperture simulating an injured vessel after platelet activation by relevant stimuli, namely collagen-epinephrine (EPI) or collagen-ADP (ADP). The maximum value for closure time is 300 seconds and values greater than 300 seconds are reported as non-closure. The closure time was determined with duplicate samples of 800 μL using cartridges containing collagen-epinephrine or collagen-ADP membranes.
(§4) The PFA-100 system is a platelet function analyzer designed to measure platelet-related primary hemostasis. The system uses two disposable cartridges: a collagen/epinephrine (CEPI) and a collagen/ADP (CADP) cartridge.

late EPCs = assay: MTT cell viability, late EPCs; assay type: cell-based, human; settings: 48 hrs, read-out: IC50 (cytotoxicity, MTT)
Protocol: Two different types of EPCs were cultured from adult peripheral blood and defined as early EPCs and late EPCs according to their time-dependent appearance. […] Peripheral blood (20 mL) was obtained from donors with informed consent. The mononuclear cells were fractionated from other components of peripheral blood by centrifugation on Histopaque 1077 (Sigma, St. Louis, Mo.), with gradients according to the manufacturer's instructions. The isolated mononuclear cells were re-suspended with a EGM-2 BulletKit system (catalog number CC-3162; Clonetics™) consisting of an endothelial basal medium, 5% fetal bovine serum, hEGF, VEGF, hFGF-B, IGF-1, ascorbic acid, and heparin; 1×10^7 mononuclear cells per well were seeded on 2% gelatin-coated 6-well plates (Sigma, St. Louis, Mo.) and incubated in a 5% CO2 incubator at 37° C. […]
Cell viability was measured with blue formazan that was metabolized from 3-(4,5-dimethylthiazol-2-yl)-2, 5-diphenyl tetrazolium bromide (MTT, Amresco USA) in mitochondria, which is active only in live cells. […] The absorbance of each well was measured at 540 nm with an ELISA reader and the percentage viability was calculated.
The in vitro cytotoxic effect of physalin B on HUVEC and EPCs were respectively determined by MTT assay, in which cells were exposed to various concentrations of physalin B (i.e., 0, 20, 40, 80 and 160 μM). […]

[3] = tested on: adhesion of THP-1 to HUVECs; assay: THP-1 cell adhesion to TNF-α-activated HUVECs; assay type: cell-based, human; settings: 80 μM, TNF-α-exposed cells, compared to TNF-α alone
Protocol: HUVECs were starved in serum-free medium for 1 hour before treatments. For adhesion assays, HUVECs monolayers in 96-well plates were treated for 2 hours with physalin B and/or TNF-α for 4 hours. After treatment, 1×10^6 THP-1 cells labeled with 5 μM calcein-AM were seeded onto confluent HUVECs and co-cultured for 30 min at 37° C. in 5% CO2 incubator. Non-adherent THP-1 cells were removed by washing with 1× phosphate buffered saline (PBS) twice. Cell images were collected by a fluorescence microscope (Zeiss) and quantified using a fluorescence microplate reader at an excitation wavelength of 490 nm and an emission wavelength of 525 nm (Bio-Tek Synergy HT).
The in vitro adhesion of THP-1 to HUVECs was monitored by use of a fluorescence dye, Calcein-AM, which stains only the viable cells. Briefly, THP-1 cells were labeled with calcein-AM first, then co-cultured with physalin B pre-treated HUVECs in the presence of TNF-α, which was added to induce inflammation. The fluorescence intensity at 525 nm was then measured.

[4] = Occlusion time for irradiation induced platelet plug formation in mesenteric venules; assay type: in vivo, ICR mice; settings: mice, DMSO vehicle 241±6.8 sec
Description: (§5) ICR mice (7-8 weeks old, each weighted about 18 to 25 g) were used in this study. All mice were maintained in the animal facility under 12 hrs light/dark cycle, with ad libitum access to food and water.
In this example, the effects of Physalin B on the aggregation of platelets were investigated by the measurement of the occlusion time for irradiation induced platelet plug formation. Briefly, mice were respectively treated with normal saline, DMSO vehicle, and Physalin B (i.e., 0.025, 0.05, or 0.1 mg/g), then the mesentertic venules were selected for irradiation to induce microthrombus formation. The occlusion time was defined as the time in which the platelet plug was first observed. Results are illustrated in FIG. 3.

Tail bleeding time = assay type: in vivo, ICR mice; settings: mice, intraperitoneal, 0.1 mg/Kg, cut 30 minutes after treatment; DMSO vehicle 83.1±11.7 sec
Description: as §5
Briefly, the test mice were randomly divided into three groups, in which the control mice received intraperitoneal injection of normal saline, whereas mice in the vehicle and the test groups respectively received intraperitoneal injection of the vehicle (i.e., DMSO) and Physalin B (i.e., […]). A cut (about 2-3 mm in length) was incised on the tail vein of each mice (about 3-5 cm from the tip of the tail) 30 minutes after the indicated treatment, then the blood was collected into a warm saline, in which the volume and the time to cessation of bleeding were both measured. Bleeding time was defined as the time in which the first cessation of bleeding was observed. Results are illustrated in FIG. 2.

platelets [5] = assay: Lactate dehydrogenase release from platelets (cytotoxicity); assay type: cell-based; settings: up to 160 μM, 30 min at 37° C.
Protocol: Cytotoxicity of physalin B on platelets were evaluated by measuring the release of lactate dehydrogenase (LDH). Platelets were suspended in Tyrodes's solution at a concentration of 3×10^8 platelets/ml. For positive control, platelets were disrupted by sonication at 4° C. for 30 sec at 40 kHz with a Biosonic Sonicator. The supernatant was used for LDH determinations. LDH activity was measured as an increase in the absorbance of NADH at 340 nm using lactate as substrates. The tests were carried out with a Toshiba Medical automatic chemical analyzer, TBA-200FR (Toshiba Medical products). The platelets were pretreated with various concentrations of physalin B for 30 min at 37° C., and the supernatant was used to measure the LDH activity.
In this example, the cytotoxic effect of physalin B on platelets was investigated by measuring the activity of lactate dehydrogenase (LDH) released from the ruptured platelets. The platelets were exposed to various concentrations of physalin B (PHB) or DMSO, which was used as the vehicle control, while sonication ruptured platelets served as a positive control. The final concentration of DMSO in the test medium was less than 0.1%. Results are depicted in FIG. 4.

platelets [6] = assay: PFA-100 platelet function, collagen/epinephrine (CEPI) cartridge closure time; assay type: cell-based, human; settings: 10 μM, collagen-epinephrine stimulus, citrated whole blood; control 125 sec
Protocol: as §3, §4

[7] = reference drug treatment, normal range 194-418

T1 sequence (Q9H244 whole entry): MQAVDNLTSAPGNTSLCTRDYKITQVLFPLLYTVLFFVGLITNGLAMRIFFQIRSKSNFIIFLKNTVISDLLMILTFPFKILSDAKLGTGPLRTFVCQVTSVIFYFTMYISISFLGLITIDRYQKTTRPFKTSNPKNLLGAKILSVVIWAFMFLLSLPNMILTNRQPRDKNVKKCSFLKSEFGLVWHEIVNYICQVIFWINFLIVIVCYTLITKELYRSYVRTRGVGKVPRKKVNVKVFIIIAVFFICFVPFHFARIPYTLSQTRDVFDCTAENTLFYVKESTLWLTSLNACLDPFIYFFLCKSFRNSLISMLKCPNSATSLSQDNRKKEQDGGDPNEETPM
T2 sequence (P08514 32-887 limits assumed): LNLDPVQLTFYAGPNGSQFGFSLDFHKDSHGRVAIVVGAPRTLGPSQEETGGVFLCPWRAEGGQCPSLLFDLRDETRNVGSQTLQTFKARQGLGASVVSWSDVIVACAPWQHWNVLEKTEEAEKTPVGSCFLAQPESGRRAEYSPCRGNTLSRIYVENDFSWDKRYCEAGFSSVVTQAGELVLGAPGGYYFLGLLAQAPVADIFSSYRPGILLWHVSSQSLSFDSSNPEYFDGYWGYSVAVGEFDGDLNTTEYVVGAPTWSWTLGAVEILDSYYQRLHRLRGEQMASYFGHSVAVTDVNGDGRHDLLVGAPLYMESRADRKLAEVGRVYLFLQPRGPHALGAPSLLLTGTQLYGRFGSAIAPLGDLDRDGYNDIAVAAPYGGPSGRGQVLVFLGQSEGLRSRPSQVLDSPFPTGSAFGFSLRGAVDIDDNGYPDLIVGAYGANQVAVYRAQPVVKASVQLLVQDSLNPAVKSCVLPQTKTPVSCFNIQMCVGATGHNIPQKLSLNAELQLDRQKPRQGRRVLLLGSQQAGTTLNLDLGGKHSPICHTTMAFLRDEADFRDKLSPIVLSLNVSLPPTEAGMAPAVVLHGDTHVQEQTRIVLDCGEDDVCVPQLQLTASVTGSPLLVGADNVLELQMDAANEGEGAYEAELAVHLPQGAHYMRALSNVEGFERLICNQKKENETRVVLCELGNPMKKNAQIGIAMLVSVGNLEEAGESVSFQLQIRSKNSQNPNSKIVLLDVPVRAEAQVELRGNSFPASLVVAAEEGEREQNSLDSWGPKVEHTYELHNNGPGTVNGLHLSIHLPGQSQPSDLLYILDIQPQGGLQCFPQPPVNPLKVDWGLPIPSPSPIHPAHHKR
T2 sequence (P08514 891-1039 limits assumed): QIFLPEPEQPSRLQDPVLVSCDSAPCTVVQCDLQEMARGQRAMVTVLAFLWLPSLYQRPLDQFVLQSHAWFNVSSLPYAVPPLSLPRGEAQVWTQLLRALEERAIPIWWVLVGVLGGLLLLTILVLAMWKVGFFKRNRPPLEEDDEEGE
T2 sequence (P05106 27-788): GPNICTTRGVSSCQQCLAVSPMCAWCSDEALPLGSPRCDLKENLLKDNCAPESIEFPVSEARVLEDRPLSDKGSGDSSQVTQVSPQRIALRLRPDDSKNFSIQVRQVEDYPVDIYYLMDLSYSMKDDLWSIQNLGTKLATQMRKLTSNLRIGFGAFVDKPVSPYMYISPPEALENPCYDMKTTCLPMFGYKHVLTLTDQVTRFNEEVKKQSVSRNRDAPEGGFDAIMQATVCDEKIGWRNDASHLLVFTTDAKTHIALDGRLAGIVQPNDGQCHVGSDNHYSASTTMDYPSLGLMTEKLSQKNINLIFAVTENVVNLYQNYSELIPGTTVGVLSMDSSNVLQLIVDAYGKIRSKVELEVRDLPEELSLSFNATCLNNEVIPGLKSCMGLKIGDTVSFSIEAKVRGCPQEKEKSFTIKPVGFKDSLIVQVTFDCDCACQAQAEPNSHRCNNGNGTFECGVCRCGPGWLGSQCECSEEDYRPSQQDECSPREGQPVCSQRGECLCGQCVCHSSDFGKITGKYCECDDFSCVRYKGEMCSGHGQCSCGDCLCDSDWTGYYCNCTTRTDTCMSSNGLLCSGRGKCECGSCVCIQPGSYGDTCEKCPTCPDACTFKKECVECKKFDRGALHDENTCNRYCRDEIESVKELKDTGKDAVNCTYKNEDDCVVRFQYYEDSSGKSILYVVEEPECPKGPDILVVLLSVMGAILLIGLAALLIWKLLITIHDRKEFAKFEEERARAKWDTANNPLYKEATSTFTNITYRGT

COC(=O)[C@H](c1ccccc1Cl)N1CCc2sccc2C1 [Clopidogrel, reference compound]
P2Y12 (PRU) (P2Y12 receptor; [7]): 263 PRU

CCCCS(=O)(=O)N[C@@H](Cc1ccc(OCCCCC2CCNCC2)cc1)C(=O)O [Aggrastat, reference compound]
GPIIb/IIIa (PAU) ([1]; reference drug treatment, reference range 125-330): 1 PAU

CC(=O)Oc1ccccc1C(=O)O [Aspirin, Acetylsalicylic acid, reference compound]
Aspirin (ARU) (arachidonic acid pathway; reference drug treatment, <550 indicates adequate inhibition): 404 ARU

C[C@]12C(=O)C=CCC1=CC[C@@H]1[C@@H]2CC[C@]2(O)C(=O)O[C@@]3(C)[C@H]4C[C@]5(C)[C@@H](CO[C@@]16O[C@@]32[C@H]5C6=O)C(=O)O4 [Physalin B]
IC50 (HUVECs): 30 µM | GPIIb/IIIa (PAU) ([1]; 20 μM): 144 PAU | GPIIb/IIIa (PAU) ([1]; 50 μM): 129 PAU | closure time (platelets [2]): statistically significant prolonged closure time | Aspirin (ARU) (arachidonic acid pathway; 20 μM): 469 ARU | Aspirin (ARU) (arachidonic acid pathway; 50 μM): 366 ARU | IC50 (late EPCs): 76 µM | P2Y12 (PRU) (P2Y12 receptor; 20 μM): 226 PRU | P2Y12 (PRU) (P2Y12 receptor; 50 μM): 65 PRU | inhibition on the adhesion of THP-1 to HUVECs [3]: about 35% | occlusion time ([4]; 0.025 mg/g): 349 ± 12.3 s | occlusion time ([4]; 0.05 mg/g): 390 ± 7 s | occlusion time ([4]; 0.1 mg/g): 415 ± 34.5 s | tail bleeding time (Tail bleeding time): 224.4 ± 58.9 s | LDH release from platelets (platelets [5]): no obvious LDH release | closure time (platelets [6]): 260 s

CCCSc1nc(N[C@@H]2C[C@H]2c2ccc(F)c(F)c2)c2nnn([C@@H]3C[C@H](OCCO)[C@@H](O)[C@H]3O)c2n1 [Ticagrelor, reference compound]
P2Y12 (PRU) (P2Y12 receptor; [7]): 1 PRU

From patent US20180000750A1, “ANTIPLATELET AGENT AND USES THEREOF” (priority 2015, published 2018)
